# How the values were obtained:
# Format in all cases: cell-based, Escherichia coli
# [1] = tested on: E. coli BT3/pACYCSP+pHASYS strain; test: Growth of E. coli BT3/pACYCSP+pHASYS with herbicidal compound; conditions: 1 ppm, 18 hours culture, Table 15
# Excerpt: (§1) According to the description of Gibson, L. C. D. et al., Proc. Natl. Acad. Sci. USA, 92; p 1941 (1995), the DNA fragment containing bchH gene prepared in Example 1 was digested with the restriction enzymes NdeI and BglII. The resultant DNA fragment was inserted between NdeI restriction site and BamHI restriction site of expression vector pET11a (manufactured by Stratagene) to obtain plasmid pETBCH (FIG. 1). This plasmid pETBCH was introduced into E. coli BL21(DE3) strain competent cells (manufactured by Stratagene) according to the manual attached to the competent cells to obtain E. coli BL21(DE3)/pETBCH strain. The strain was inoculated into 1.5 ml LB liquid culture medium (1% tryptone, 0.5% yeast extract, 0.5% NaCl) containing 100 μg/ml ampicillin in a tube (14×10 mm), and the tube was covered with aluminum foil (hereinafter referred to as dark conditions), cultured with shaking at 37° C. under light of fluorescent lamp (about 8000 lux). When the absorbance at 600 nm of the liquid culture medium became about 0.6, isopropyl β-D-thiogalactopyranoside (IPTG) was added to the liquid culture medium so that the final concentration was 0.4 mM, and the culture was continued for about additional 20 hours. […]
# [2] = tested on: E. coli BT3/pACYCSP+pHASYS8 strain; test: Growth of E. coli BT3/pACYCSP+pHASYS8 with herbicidal compound; conditions: 1 ppm, 18 hours culture, Table 16
# [3] = tested on: E. coli BT3/pACYCSP+pHASYS4 strain; test: Growth of E. coli BT3/pACYCSP+pHASYS4 with herbicidal compound; conditions: 1 ppm, 18 hours culture, Table 16
# Excerpt: as §1
structure (smiles),measurement,setting,value
C#CCOc1cc(N2C(=O)C3=C(CCCC3)C2=O)c(F)cc1Cl [Structure 8],Relative absorbance,[1]; in the dark,0.96
same,Relative absorbance,[1]; in the light,0.65
same,Relative absorbance,[2]; in the dark,1.0
same,Relative absorbance,[2]; in the light,0.57
same,Relative absorbance,[3]; in the dark,1.0
same,Relative absorbance,[3]; in the light,0.91
